In brackets after ≈: the same amount, converted by molar mass. Entries after “also recorded” stand apart in the source; their conditions may differ. Like-named read-outs stand apart in the source and are kept apart here.
Experiments:
[1] = tested on: Salmonella typhimurium TA1535; experiment: Ames test (plate incorporation), TA1535
[2] = Ferric reducing ability of plasma (FRAP); details: 10 mg/mL antrocin
Protocol: The following methodology describes the FRAP assay: Add 10 µL of sample to a 96-well plate. For each sample, a parallel sample was prepared as a sample background control. Add 4 µL of FRAP Positive Control to each well and make up to 10 µL with FRAP Assay Buffer. For standard curve preparation, add 0, 2, 4, 6, 8, and 10 µL of a 2 mM ferrous standard solution to the wells of a 96-well plate to generate 0, 4, 8, 12, 16, and 20 nmol/well of ferrous iron, respectively. Adjust the volume to 10 µL/well with FRAP Assay Buffer. Mix sufficient reagents for the number of tests to be performed, including: Add 190 µL of Reaction Mix to the wells of the standard curve, positive control, and test samples. Add 190 µL Background Control Mix to the sample background control wells and mix well. After 60 min of reaction at 37 °C, measure the absorbance at 594 nm. Subtract 0 nmol standard readings from all standard curve readings to draw a ferrous standard curve. If the sample background control is significant, subtract the background control reading from its paired sample reading. Apply the sample OD value to the ferrous standard curve to obtain the reduced ferrous ion B nmol generated during the reaction.
Use the following calculation to determine the mM ferrous equivalence of the sample.
Sample FRAP or mM ferrous equivalents = B × D/V = nmol/µL(2) […]

[3] = tested on: Salmonella typhimurium TA98; experiment: Ames test (plate incorporation), TA98
ICR male mice = experiment: In vivo mammalian erythrocyte micronucleus test
[4] = tested on: Salmonella typhimurium TA100
[5] = MTT assay for cytotoxicity; type: cell-based, Chinese hamster; details: Chinese hamster, CHO-K1 cells, read-out: cell viabilities
CHO-K1 cells = experiment: MTT assay for cytotoxicity; type: cell-based, Chinese hamster; details: Cricetulus griseus, MTT, 24 h, read-out: half maximal inhibitory concentration (IC50)
[6] = tested on: five different strains of Salmonella typhimurium; experiment: Bacterial toxicity test prior to the Ames test; details: all tester strains
[7] = tested on: Salmonella typhimurium TA98
[8] = TA98, with S9, mutagen 2-AA 25 μg/plate, antrocin 0.025 mg/plate
[9] = TA98, with S9, mutagen 2-AA 25 μg/plate, antrocin 0.05 mg/plate
[10] = TA98, with S9, mutagen 2-AA 25 μg/plate, antrocin […]
[11] = TA98, without S9, mutagen 4-NQO 2.5 μg/plate, antrocin 0.025 mg/plate
[12] = TA98, without S9, mutagen 4-NQO 2.5 μg/plate, antrocin 0.05 mg/plate
[13] = TA98, without S9, mutagen 4-NQO 2.5 μg/plate, antrocin […]

C=C1CC[C@H]2C(C)(C)CCC[C@@]23C(=O)OC[C@@H]13 [Antrocin, (-)-Antrocin]
Number of Revertant ([1]; TA1535, with S9, 0.003125 mg/plate): 17.3 ± 0.5 Colony/Plate | Number of Revertant ([1]; TA1535, with S9, 0.00625 mg/plate): 15.7 ± 6.1 Colony/Plate | Number of Revertant ([1]; TA1535, with S9, 0.025 mg/plate): 18.0 ± 1.6 Colony/Plate | Number of Revertant ([1]; TA1535, with S9, 0.05 mg/plate): 14.0 ± 2.4 Colony/Plate | Number of Revertant ([1]; TA1535, without S9, 0.003125 mg/plate): 11.7 ± 2.4 Colony/Plate | Number of Revertant ([1]; TA1535, without S9, 0.00625 mg/plate): 14.7 ± 4.0 Colony/Plate | Number of Revertant ([1]; TA1535, without S9, 0.025 mg/plate): 10.7 ± 1.2 Colony/Plate | Number of Revertant ([1]; TA1535, without S9, 0.05 mg/plate): 12.7 ± 2.9 Colony/Plate | Ferric Reducing Ability of Plasma (mM Ferrous Equivalent) [2]: 0.218 ± 0.004 mM Ferrous Equivalent | Number of Revertant ([3]; TA98, with S9, 0.003125 mg/plate): 33.7 ± 1.2 Colony/Plate | Number of Revertant ([3]; TA98, with S9, 0.00625 mg/plate): 32.0 ± 1.6 Colony/Plate | Number of Revertant ([3]; TA98, with S9, 0.025 mg/plate): 34.3 ± 3.3 Colony/Plate | Number of Revertant ([3]; TA98, with S9, 0.05 mg/plate): 36.0 ± 4.3 Colony/Plate | Number of Revertant ([3]; TA98, without S9, 0.00625 mg/plate): 246.0 ± 16.4 Colony/Plate | Number of Revertant ([3]; TA98, without S9, 0.025 mg/plate): 278.3 ± 4.5 Colony/Plate | Number of Revertant ([3]; TA98, without S9, 0.05 mg/plate): 270.0 ± 11.2 Colony/Plate | bacterial mutagenicity ([3]; preliminary tests, TA98, 100 μg/plate): no bacterial mutagenicity | Mn-RETs/1000RETs (‰) (ICR male mice; 48 h, 100 mg/kg oral gavage): 2.2 ± 0.9 ‰ | RETs/1000RBCs (‰) (ICR male mice; 48 h, 100 mg/kg oral gavage): 20.4 ± 2.4 ‰ | frequencies of micronuclei (ICR male mice; 48 h, 250 mg/kg): 18.8 ± 1.9 ‰ | Mn-RETs/1000RETs (‰) (ICR male mice; 48 h, 250 mg/kg oral gavage): 1.5 ± 0.2 ‰ | RETs/1000RBCs (‰) (ICR male mice; 48 h, 250 mg/kg oral gavage): 18.8 ± 1.9 ‰ | frequencies of micronuclei (ICR male mice; 48 h, […]): 20.8 ± 2.5 ‰ | frequencies of micronuclei (ICR male mice; 72 h, 100 mg/kg): 31.0 ± 6.1 ‰ | Mn-RETs/1000RETs (‰) (ICR male mice; 72 h, 100 mg/kg oral gavage): 3.0 ± 1.0 ‰ | RETs/1000RBCs (‰) (ICR male mice; 72 h, 100 mg/kg oral gavage): 31.0 ± 6.1 ‰ | frequencies of micronuclei (ICR male mice; 72 h, 250 mg/kg): 26.5 ± 4.6 ‰ | Mn-RETs/1000RETs (‰) (ICR male mice; 72 h, 250 mg/kg oral gavage): 2.2 ± 0.5 ‰ | RETs/1000RBCs (‰) (ICR male mice; 72 h, 250 mg/kg oral gavage): 26.5 ± 4.6 ‰ | frequencies of micronuclei (ICR male mice; 72 h, […]): 28.9 ± 5.0 ‰ | frequency of micronuclei versus control (ICR male mice; antrocin-treated groups after 48 or 72 h): no significant changes | Number of Revertant ([4]; TA100, with S9, 0.003125 mg/plate): 194.3 ± 5.4 Colony/Plate | Number of Revertant ([4]; TA100, with S9, 0.00625 mg/plate): 185.0 ± 6.5 Colony/Plate | Number of Revertant ([4]; TA100, with S9, 0.025 mg/plate): 197.0 ± 8.8 Colony/Plate | Number of Revertant ([4]; TA100, with S9, 0.05 mg/plate): 195.3 ± 2.9 Colony/Plate | Number of Revertant ([4]; TA100, without S9, 0.003125 mg/plate): 170.7 ± 1.2 Colony/Plate | Number of Revertant ([4]; TA100, without S9, 0.00625 mg/plate): 169.3 ± 8.2 Colony/Plate | Number of Revertant ([4]; TA100, without S9, 0.025 mg/plate): 181.7 ± 5.7 Colony/Plate | Number of Revertant ([4]; TA100, without S9, 0.05 mg/plate): 166.7 ± 4.5 Colony/Plate | bacterial mutagenicity ([4]; preliminary tests, TA100, 100 μg/plate): no bacterial mutagenicity | viability at 24 h, 31.25 μg/mL ([5]; 31.25 μg/mL): 81.3 ± 5% | viability at 24 h, 62.5 μg/mL ([5]; 62.5 μg/mL): 62.9 ± 8.9% | viability at 24 h, 250 μg/mL ([5]; 250 μg/mL): 24.8 ± 1.9% | viability at 24 h, 500 μg/mL ([5]; 500 μg/mL): 22.1 ± 1.5% | IC50 (CHO-K1 cells): ~123 µg/mL (≈ 524 µM) | maximum non-toxic concentration [6]: 0.05 mg/plate | Inhibition (%) of mutagenicity [7, 8]: 18.17% | Number of Revertant [7, 8]: 4959.0 ± 739.1 Colony/Plate | Inhibition (%) of mutagenicity [7, 9]: 33.67% | Number of Revertant [7, 9]: 4024.0 ± 251.1 Colony/Plate | Inhibition (%) of mutagenicity [7, 10]: 6.21% | Number of Revertant [7, 10]: 5680.3 ± 640.7 Colony/Plate | antimutagenic agent strength ([7]; TA98, without S9, against direct mutagen 4-NQO): strong anti-mutagenic agent; also recorded: very strong anti-mutagenic effect | Inhibition (%) of mutagenicity [7, 11]: 51.03% | Number of Revertant [7, 11]: 67.7 ± 2.5 Colony/Plate | Inhibition (%) of mutagenicity [7, 12]: 98.62% | Number of Revertant [7, 12]: 21.7 ± 1.5 Colony/Plate | Inhibition (%) of mutagenicity [7, 13]: 35.17% | Number of Revertant [7, 13]: 83.0 ± 3.6 Colony/Plate
